Our source for the IC50, Activity and Ratio IC50 values is ChEMBL document CHEMBL3763065, “Anti-inflammatory and antioxidant properties of a novel resveratrol-salicylate hybrid analog” (Bioorg Med Chem Lett, 2016).

Calls of active or inactive are those of the source. The calls are words filed in the database; no cut-off is given here.

The target of series [1] is T1, Prostaglandin G/H synthase 1 (Ovis aries, UniProt P05979).
T1 sequence (P05979 whole entry): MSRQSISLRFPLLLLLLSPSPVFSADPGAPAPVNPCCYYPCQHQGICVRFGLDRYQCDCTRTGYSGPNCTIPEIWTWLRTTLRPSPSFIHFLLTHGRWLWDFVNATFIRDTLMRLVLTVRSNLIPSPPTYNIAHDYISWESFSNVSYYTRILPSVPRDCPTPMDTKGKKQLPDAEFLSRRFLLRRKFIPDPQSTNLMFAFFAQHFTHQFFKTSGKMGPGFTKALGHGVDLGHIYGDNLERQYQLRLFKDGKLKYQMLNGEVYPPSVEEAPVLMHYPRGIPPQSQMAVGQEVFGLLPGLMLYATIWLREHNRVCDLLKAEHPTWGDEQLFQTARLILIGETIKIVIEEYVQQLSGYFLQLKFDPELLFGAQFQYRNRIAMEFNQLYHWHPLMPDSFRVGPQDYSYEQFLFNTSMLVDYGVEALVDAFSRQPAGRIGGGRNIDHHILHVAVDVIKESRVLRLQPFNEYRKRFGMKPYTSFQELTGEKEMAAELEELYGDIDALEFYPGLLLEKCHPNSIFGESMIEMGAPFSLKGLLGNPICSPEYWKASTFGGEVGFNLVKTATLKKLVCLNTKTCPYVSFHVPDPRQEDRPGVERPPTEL
Description: Inhibition of ovine COX-1 using arachidonic acid as substrate assessed as PGE2 production preincubated for 10 mins followed by substrate addition incubated for 2 mins by ELISA.

Series [2] deals with T2, Prostaglandin G/H synthase 2 (Homo sapiens, UniProt P35354).
T2 sequence (P35354 whole entry): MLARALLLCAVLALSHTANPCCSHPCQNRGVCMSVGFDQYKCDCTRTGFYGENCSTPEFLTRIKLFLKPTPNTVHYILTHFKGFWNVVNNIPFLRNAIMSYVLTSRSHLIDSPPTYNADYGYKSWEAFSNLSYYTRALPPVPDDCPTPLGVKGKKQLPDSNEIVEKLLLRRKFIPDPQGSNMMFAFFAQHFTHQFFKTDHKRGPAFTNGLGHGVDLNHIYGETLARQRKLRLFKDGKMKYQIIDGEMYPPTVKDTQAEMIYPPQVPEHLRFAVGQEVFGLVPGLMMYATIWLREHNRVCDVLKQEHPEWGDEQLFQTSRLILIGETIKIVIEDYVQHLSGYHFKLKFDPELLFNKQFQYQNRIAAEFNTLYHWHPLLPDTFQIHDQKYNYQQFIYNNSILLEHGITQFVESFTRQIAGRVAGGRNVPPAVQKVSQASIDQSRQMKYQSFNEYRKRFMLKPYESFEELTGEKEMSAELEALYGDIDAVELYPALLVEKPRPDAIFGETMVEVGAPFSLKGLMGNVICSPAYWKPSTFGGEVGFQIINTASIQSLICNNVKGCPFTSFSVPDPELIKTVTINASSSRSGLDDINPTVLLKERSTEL
Kind of series: Inhibition of human recombinant COX-2 using arachidonic acid as substrate assessed as PGE2 production preincubated for 10 mins followed by substrate addition incubated for 2 mins by ELISA.

The nature of series [3]: Antioxidant activity assessed as DPPH free radical scavenging activity at 200 uM after 30 mins by spectrophotometric analysis. In kind it is physicochemical. To be noted: 0.5 h.
Series [4] in a line: Selectivity index ratio of IC50 for ovine COX-1 to IC50 for human recombinant COX-2.
The nature of series [5]: Antioxidant activity assessed as DPPH free radical scavenging activity at 0.06 to 200 uM after 30 mins by spectrophotometric analysis. Conditions: 0.5 h. It is filed as physicochemical.
The test system of series [6] is Mus musculus. Kind of series: Antiinflammatory activity in BALB/c mouse paw edema model assessed as decrease in myeloperoxidase activity in paw exudates at 20 mg/kg, po administered 30 mins prior to carrageenan challenge measured after 4 hrs by microplate reader analysis relative to control. It is filed as functional. On the set-up: scale not given: the % may be the effect or the level left.

Series [7] deals with Mus musculus. Description: Antiinflammatory activity in carrageenan-induced BALB/c mouse peritonitis model assessed as decrease in number of leukocytes in peritoneal exudates administered via oral gavage 30 mins prior to carrageenan challenge measured after 4 hrs. In kind it is functional, organism-based.
For series [8], the system named is Mus musculus. Description: Antiinflammatory activity in carrageenan-induced BALB/c mouse peritonitis model assessed as decrease in nitric oxide level in peritoneal exudates at 10 to 20 mg/kg administered via oral gavage 30 mins prior to carrageenan challenge measured after 4 hrs by Griess method. It is filed as functional, organism-based.
Series [9] has as its system Mus musculus. Description: Antiinflammatory activity in carrageenan-induced BALB/c mouse paw edema model assessed as decrease in paw volume at 10 mg/kg, po administered 30 mins prior to carrageenan challenge measured after 6 hrs by plethysmometric analysis relative to control. In kind it is functional. On the set-up: scale not given: the % may be the effect or the level left.

For series [10], the system named is Mus musculus. Description: Antiinflammatory activity in carrageenan-induced BALB/c mouse paw edema model assessed as decrease in paw volume administered orally 30 mins prior to carrageenan challenge measured after 1 to 6 hrs by plethysmometric analysis. It is filed as functional, organism-based.
The test system of series [11] is Mus musculus. Description: Antiinflammatory activity in carrageenan-induced BALB/c mouse paw edema model assessed as decrease in paw volume at 20 mg/kg, po administered 30 mins prior to carrageenan challenge measured after 6 hrs by plethysmometric analysis relative to control. In kind it is functional. On the set-up: scale not given: the % may be the effect or the level left.

Series [12] deals with Mus musculus. Kind of series: Antiinflammatory activity in BALB/c mouse paw edema model assessed as decrease in myeloperoxidase activity in paw exudates at 10 mg/kg, po administered 30 mins prior to carrageenan challenge measured after 4 hrs by microplate reader analysis relative to control. It is filed as functional. Also on record: scale not given: the % may be the effect or the level left.

In series [13] the test system is HepG2. Description: Antioxidant activity in human HepG2 cells assessed as reduction of H2O2-induced ROS level at 10 uM pretreated for 20 hrs followed by H2O2 stimulation for 30 mins by DCF-DA-based fluorescence analysis relative to control. It is filed as functional. Also on record: scale not given: the % may be the effect or the level left.
The subject of series [14] is HepG2. Description: Cytotoxicity against human HepG2 cells at 2.5 to 10 uM by MTT assay. In kind it is cell-based. To be noted: hepg2, 10 µM.
Series [15] has as its system Mus musculus. Description: Antiinflammatory activity in carrageenan-induced BALB/c mouse peritonitis model assessed as decrease in number of leukocytes in peritoneal exudates at 10 to 20 mg/kg administered via oral gavage 30 mins prior to carrageenan challenge measured after 4 hrs. In kind it is functional, organism-based.

Regarding `O=C(O)c1cc(/C=C/c2ccc(O)cc2)ccc1O`, the values for the 50% inhibitory concentration (IC50) in series [1] and in [2] were 421 µM and above 500 µM, respectively. Moreover, the outcome in series [3] was Active.
On to `O=C(O)c1cc(/C=C/c2cc(O)cc(O)c2)ccc1O`, for which the IC50 in series [1] turned out to be 3.2 µM; in series [2] it was 10.3 µM. Further, the Ratio IC50 in [4] came out at 0.31. The result in series [5] was Active.
Consider `COC(=O)c1cc(/C=C/c2cc(O)cc(O)c2)ccc1O`, for which the Activity in the series on Mus musculus [6] is 60%; in the series on Mus musculus [7] it was “Dose-dependent effect”; with Mus musculus [9], 59%; with Mus musculus [10], “Dose-dependent effect”; with Mus musculus [11], 74%; with Mus musculus [12] it was 60%. Moreover, the Activity with HepG2 [13] is recorded as 33%; with HepG2 [14], “Non-toxic”; in [5] it was “Active”. Moreover, the values for the concentration for half-maximal inhibition (IC50) in [1] and in series [2] were 4.1 µM and 1 µM, respectively. Further, in [4], the Ratio IC50 came out at 4.1. The outcome in the series on Mus musculus [8] was inactive.
For the molecule `Oc1ccc(/C=C/c2cc(O)cc(O)c2)cc1` [RESVERATROL], the Activity in the series on Mus musculus [6] is 53%; in the series on Mus musculus [9], 34%; in the series on Mus musculus [10], “Dose-dependent effect”; in the series on Mus musculus [11], 52%; in the series with HepG2 [13], 25%; with HepG2 [14] it was “Non-toxic”. Further, the outcome in [5] was Active. Moreover, the result in the series on Mus musculus [15] was Active. Further, the result in the series on Mus musculus [8] was inactive.
Turning to `COc1ccc(/C=C/c2cc(OC)cc(OC)c2)cc1` [TRISMETHOXYRESVERATROL], the result with Mus musculus [6] and with Mus musculus [8] was inactive. In addition, the half-maximal inhibitory concentration (IC50) in series [1] came to 1.23 µM; in series [2], 1.67 µM. Besides, the Ratio IC50 in series [4] is 0.74. Besides, the Activity result in the series on Mus musculus [7] is “Dose-dependent effect”; in the series with Mus musculus [9], 19%; in the series on Mus musculus [10], “Dose-dependent effect”; with Mus musculus [11], 34%; in the series on HepG2 [13] it was 42%; in the series with HepG2 [14] it was “Non-toxic”.
